Patent US20020065279A1, “Arylsulfonic acid salts of pyrimidine-based antiviral” (priority 2000, published 2002)
Where a name gives a salt, the structure may show the parent alone. Read-outs that look alike come from different tables or passages of the source.

How the values were obtained:
[1] = Acid selection: salt formation of compound 1 with acids; format: physicochemical
Text: In order to prepare suitable formulations of the compounds of formula I below, standard salt formation methods were pursued. […] These acids represent most of the pharmaceutical salts used today.

[2] = Thermal stability of salts at 45° C. (HPLC purity); format: physicochemical
[3] = Aqueous solubility of compound 1 free base and salts; format: physicochemical
Text: A variety of pyrimidine-based antiviral compounds have been described in co-pending U.S. Ser. No. 09/249,64 1, filed Feb. 12, 1999 and in PCT application US99/03136. The development of a pyrimidine-based antiviral agent (such as those described hereinbelow) for clinical use required the identification of a salt form with optimal physical and chemical properties. The most critical properties included crystallinity, aqueous solubility, light stability and thermal stability. As noted above, applications U.S. Ser. No. 09/249,641 and PCT US99/03136 describe pyrimidine derivatives both as free bases and as their pharmaceutically acceptable salts. Among the salts listed for this group of compounds exre hydrochloric, hydrobromic, nitric, carbonic, monohydrogencarbonic, phosphoric, monohydrogenphosphoric, dihydrogenphosphoric, sulfuric, monohydrogensulfuric, hydriodic, or phosphorous acids and the like, as well as the salts derived from organic acids like acetic, propionic, isobutyric, oxalic, maleic, malonic, benzoic, succinic, suberic, fumaric, mandelic, phthalic, benzenesulfonic, p-tolylsulfonic, citric, tartaric, miethanesulfonic, and the like. Also included are salts of amino acids such as arginate and the like, and salts of organic acids like glucuronic or galactunoric acids and the like.
The besilate and tosylate salts represent improvement over the free base in solubility as described in Table 2 below. The increase in solubility represents a significant advantage over the free base for formulations that are suitable for therapeutic administration.

[4] = Aqueous stability of salts in deionized water (HPLC, UV 254.4 nm); format: physicochemical
Experimental: The tosylate salts was evaluated at a concentration of 4.7 mg/mL and the besilate salt was evaluated at a concentration of 3.2 mg/mL. Stability was monitored via HPLC using UV detection at 254.4 nm.

[5] = Light stability of salts (ambient light and window glass filtered sunlight, HPLC purity); format: physicochemical
[6] = pKa of the free base of compound 1
[7] = first printed pKa of the acid; cited from earlier work

## O=C(O)c1cccc(O)c1 [3-Hydroxybenzoic]
[1]; Solvent EtOAc
  Result (salt formation with compound 1): No salt formed

## CC(=O)O [Acetic]
[1]; Solvent Et2O
  Result (salt formation with compound 1): No salt formed

## O=C(O)c1ccccc1 [Benzoic]
[1]; Solvent Et2O
  Result (salt formation with compound 1): No salt formed
[1]; Solvent EtOAc
  Result (salt formation with compound 1): No salt formed

## Cc1nc(N2CCOCC2C)nc(-n2ccnc2)c1[N+](=O)[O-] (stereo not drawn) [Besilate Salt, 2-(3S-3-methylmorpholino)-4-(imidazol-1-yl)-6-methyl-5-nitropyrimidine benzenesulfonate]
[2]; 8 hours
  purity %, HPLC (thermal stability): 100%
[2]; 24 hours
  purity %, HPLC (thermal stability): 100%
[2]; 48 hours
  purity %, HPLC (thermal stability): 100%
[2]; 72 hours
  purity %, HPLC (thermal stability): 100%
[2]; 170 hours
  purity %, HPLC (thermal stability): 100%
[2]; 250 hours
  purity %, HPLC (thermal stability): 100%
[2]; 1632 hours
  purity %, HPLC (thermal stability): 100%
[3]; listed as Resilate Salt
  Aqueous Solubility: 44 mg/mL
[4]; 3.2 mg/mL, 48 hours
  purity %, HPLC (aqueous stability): 100%
[4]; 3.2 mg/mL, 147 hours
  purity %, HPLC (aqueous stability): 100%
[4]; 3.2 mg/mL, 171 hours
  purity %, HPLC (aqueous stability): 97.4%
[4]; 3.2 mg/mL, 201 hours
  purity %, HPLC (aqueous stability): 91.7%
[4]; 3.2 mg/mL, 216 hours
  purity %, HPLC (aqueous stability): 91.7%
[4]; 3.2 mg/mL, 1560 hours
  purity %, HPLC (aqueous stability): 61.4%
[5]; 24 hours
  purity %, HPLC (light stability): 100%
[5]; 48 hours
  purity %, HPLC (light stability): 100%
[5]; 216 hours
  purity %, HPLC (light stability): 97.3%
[5]; 1560 hours
  purity %, HPLC (light stability): 93.1%

## O=C(O)CC(O)(CC(=O)O)C(=O)O [Citric]
[1]; Solvent Et2O
  Result (salt formation with compound 1): No salt formed
[1]; Solvent EtOAc
  Result (salt formation with compound 1): No salt formed
[1]; Solvent EtOAc/MeOH
  Result (salt formation with compound 1): No salt formed

## Cc1nc(N2CCOCC2C)nc(-n2ccnc2)c1[N+](=O)[O-] (stereo not drawn) [Compound 1, 2-(3S-3-methylmorpholino)-4-(imidazol-1-yl)-6-methyl-5-nitropyrimidine]
[6]
  pKa: 4.09
[3]
  Aqueous Solubility: 1.68 mg/mL

## O=C(O)[C@@H](O)[C@H](O)C(=O)O [D-Tartaric]
[1]; Solvent EtOAc
  Result (salt formation with compound 1): No salt formed
[1]; Solvent MeOH
  Result (salt formation with compound 1): No salt formed

## O=CO [Formic]
[1]; Solvent EtOH
  Result (salt formation with compound 1): No salt formed

## Br [Hydrobromic]
[1]; Solvent EtOH
  Result (salt formation with compound 1): Decomposition

## Cl [Hydrochloric]
[1]; Solvent CH3CN
  Result (salt formation with compound 1): Decomposition
[1]; Solvent CHCl3
  Result (salt formation with compound 1): Decomposition
[1]; Solvent Et2O
  Result (salt formation with compound 1): Decomposition
[1]; Solvent EtOAc
  Result (salt formation with compound 1): Decomposition
[1]; Solvent IPA
  Result (salt formation with compound 1): Decomposition
[1]; Solvent MeOH
  Result (salt formation with compound 1): Decomposition

## O=C(O)/C=C\C(=O)O [Maleic]
[1]; Solvent Et2O
  Result (salt formation with compound 1): No salt formed
[1]; Solvent EtOAc
  Result (salt formation with compound 1): No salt formed

## CS(=O)(=O)O [Methanesulfonic]
[1]; Solvent CH2Cl2
  Result (salt formation with compound 1): Decomposition
[1]; Solvent Et2O
  Result (salt formation with compound 1): Decomposition
[1]; Solvent EtOAc
  Result (salt formation with compound 1): Decomposition
[1]; Solvent EtOAc/CH2Cl2
  Result (salt formation with compound 1): Decomposition
[1]; Solvent EtOAc/hexanes
  Result (salt formation with compound 1): Decomposition

## O=[N+]([O-])O [Nitric]
[1]; Solvent EtOH
  Result (salt formation with compound 1): Decomposition
[7]
  pKa (acid): −1.4

## O=C(O)c1ccccc1O [Salicylic]
[1]; Solvent Et2O
  Result (salt formation with compound 1): No salt formed
[1]; Solvent EtOAc
  Result (salt formation with compound 1): No salt formed

## NC(=O)CCC(=O)O [Succinamic]
[1]; Solvent EtOAc
  Result (salt formation with compound 1): No salt formed
[1]; Solvent EtOAc/MeOH
  Result (salt formation with compound 1): No salt formed
[7]
  pKa (acid): 4.4

## O=S(=O)(O)O [Sulfuric]
[1]; Solvent EtOH
  Result (salt formation with compound 1): Decomposition

## Cc1ccc(S(=O)(=O)O)cc1 [Toluenesulfonic]
[1]; Solvent CHCl3/hexanes
  Result (salt formation with compound 1): Yellow crystals
[1]; Solvent EtOAc
  Result (salt formation with compound 1): Yellow crystals

## Cc1nc(N2CCOCC2C)nc(-n2ccnc2)c1[N+](=O)[O-] (stereo not drawn) [Tosylate Salt, 2-(3S-3-methylmorphoamino)-4-(imidazol-1-yl)-6-methyl-5-nitropyrimidine p-toluenesulfonate]
[2]; 8 hours
  purity %, HPLC (thermal stability): 100%
[2]; 24 hours
  purity %, HPLC (thermal stability): 100%
[2]; 48 hours
  purity %, HPLC (thermal stability): 100%
[2]; 72 hours
  purity %, HPLC (thermal stability): 100%
[2]; 170 hours
  purity %, HPLC (thermal stability): 100%
[2]; 250 hours
  purity %, HPLC (thermal stability): 100%
[2]; 1632 hours
  purity %, HPLC (thermal stability): 100%
[3]
  Aqueous Solubility: 36 mg/mL
[4]; 4.7 mg/mL, 48 hours
  purity %, HPLC (aqueous stability): 100%
[4]; 4.7 mg/mL, 147 hours
  purity %, HPLC (aqueous stability): 100%
[4]; 4.7 mg/mL, 171 hours
  purity %, HPLC (aqueous stability): 97.3%
[4]; 4.7 mg/mL, 201 hours
  purity %, HPLC (aqueous stability): 93.1%
[4]; 4.7 mg/mL, 216 hours
  purity %, HPLC (aqueous stability): 92.8%
[4]; 4.7 mg/mL, 1560 hours
  purity %, HPLC (aqueous stability): 64.6%
[5]; 24 hours
  purity %, HPLC (light stability): 100%
[5]; 48 hours
  purity %, HPLC (light stability): 100%
[5]; 216 hours
  purity %, HPLC (light stability): 97.6%
[5]; 1560 hours
  purity %, HPLC (light stability): 86.6%

## Benzenesulfonic
[1]; Solvent CH2Cl2/hexanes
  Result (salt formation with compound 1): Yellow crystals
[1]; Solvent CH3CN
  Result (salt formation with compound 1): Yellow crystals
[1]; Solvent CHCl3/hexanes
  Result (salt formation with compound 1): Yellow crystals
[1]; Solvent EtOAc/MeOH
  Result (salt formation with compound 1): Yellow crystals
[1]; Solvent EtOH
  Result (salt formation with compound 1): Yellow crystals
[1]; Solvent EtOH/hexanes
  Result (salt formation with compound 1): Yellow crystals
[7]
  pKa (acid): 1.6

## Fumaric
[1]; Solvent EtOAc/MeOH
  Result (salt formation with compound 1): No salt formed

## L-Tartaric
[1]; Solvent Et2O
  Result (salt formation with compound 1): No salt formed
[1]; Solvent EtOAc
  Result (salt formation with compound 1): No salt formed
[1]; Solvent EtOH
  Result (salt formation with compound 1): No salt formed
[1]; Solvent MeOH
  Result (salt formation with compound 1): No salt formed
